This note sets out measurements from patent US20080069898A1, “Topical Compositions Comprising Myrica Gale Oil” (priority 2004, published 2008).

For the data set, the system named is skin. The experiment in a line: 96 hour patch test of irritancy. As to conditions: 0.3% w/v in sterile water. How it is done:
A 96 hour patch test was carried out to assess the irritancy or otherwise of Myrica gale oil when applied to the skin. For comparison, a solution of sodium dodecyl sulphate and white soft paraffin were also investigated.

On to `CCCCCCCCCCCCOS(=O)(=O)[O-].[Na+]` [Sodium dodecyl sulphate (SDS), Sodium dodecyl sulphate], for which the “Mean Dryness (D)” value came out at 0.72, the “Mean Erythema (E)” value is given as 4.54 and the “Mean Irritation (E + D)” value was determined as 5.26.
